Assay results from PMC5608352, “Formyl peptide derived lipopeptides disclose differences between the receptors in mouse and men and call the pepducin concept in question” (PLoS ONE, 2017).
Residues, ends and D or L forms follow the SMILES beside them. *: point of attachment. Palmitoyl = CCCCCCCCCCCCCCCC(=O)*

Key:
Fpr2 = target: T1, Fpr2 (Mus musculus, UniProt O88536); assay: Inhibition of F1Pal16-induced superoxide release, WT mouse neutrophils; format: cell-based; details: mF2Pal16 250 nM, 5 min pre-incubation, F1Pal16 500 nM, one of three experiments
T1 construct: WT mouse neutrophils (5 x 10^4 cells) were pre-incubated without (solid line) or with mF2Pal16; endogenous in cells; host or cells: bone marrow neutrophils of C57BL/6 wild-type mice, TNF-alpha primed
T1 sequence (O88536 1-351): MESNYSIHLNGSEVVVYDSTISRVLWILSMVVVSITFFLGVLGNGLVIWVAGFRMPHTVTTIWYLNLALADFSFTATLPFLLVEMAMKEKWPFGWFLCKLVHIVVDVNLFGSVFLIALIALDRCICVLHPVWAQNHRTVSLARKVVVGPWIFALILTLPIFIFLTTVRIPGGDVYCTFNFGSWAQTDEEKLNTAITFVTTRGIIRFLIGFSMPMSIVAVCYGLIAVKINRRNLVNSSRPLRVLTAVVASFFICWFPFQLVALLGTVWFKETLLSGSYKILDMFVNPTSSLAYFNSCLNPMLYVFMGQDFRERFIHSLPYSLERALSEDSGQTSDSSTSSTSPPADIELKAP
Excerpt: Mice (8–12 weeks of age) were killed by cervical dislocation, the femurs and tibias were removed and freed of soft tissue attachments, and the extreme distal tip of each extremity was cut off. KRG without Ca^2+ and Mg^2+ (KRG-) was forced through the bone by using a 1-mL syringe with a 27-gauge needle. After dispersing cell clumps and removing the debris, the bone marrow granulocytes were isolated according to an earlier described procedure with some modifications. Briefly, a cell suspension in 2 mL of KRG- was laid on top of a three-layer Percoll gradient (1.095, 1.085, and 1.070 g/mL). The density of each Percoll solution was verified using density marker beads. […] The cell number and population of bone marrow cells were determined by flow cytometry based on forward scatter (size) and side scatter (density) localization.
(§1) NADPH-oxidase activity was determined using an isoluminol and HRP-enhanced chemiluminescence (CL) system that allow for the determination of superoxide production. The CL activity was measured in a six-channel Biolumat LB 9505 apparatus (Berthold Co., Wildbad, Germany), using disposable 4-mL polypropylene tubes with 1 mL reaction mixture. […] The light emission was recorded continuously over time and presented as superoxide production (in arbitrary light units, cpm x10^-6) as a function of time (min). […]

human neutrophils = assay: Direct activation: superoxide release (isoluminol/HRP chemiluminescence), human neutrophils; format: cell-based; details: 10^5 cells, 37°C, isoluminol/HRP CL, pepducin 1 μM
Excerpt: Human peripheral blood neutrophils were isolated from buffy coats from healthy blood donors using dextran sedimentation and Ficoll-Paque gradient centrifugation as described. The remaining erythrocytes were disrupted by hypotonic lysis and the neutrophils were washed twice, suspended in KRG and, stored on melting ice until use. This isolation process permits cells to be purified with minimal granule mobilization. The buffy coats were obtained from the blood bank at Sahlgrenska University Hospital. Ethics approval was not needed since the buffy coats were provided anonymously and could not be traced back to a specific individual. This is in line with Swedish legislation section code 4§ 3p SFS 2003:460 (Lag om etikprövning av forskning som avser människor).
as §1, with “(min). The activity before stimulus addition was recorded as basal line and this activity was not changed in vehicle control samples.” for “(min).”

## CCCCCCCCCCCCCCCC(=O)N[C@@H](CCCCN)C(=O)N[C@H](C(=O)N[C@@H](CC(N)=O)C(=O)N[C@@H](CCCNC(=N)N)C(=O)N[C@@H](CCCNC(=N)N)C(=O)N[C@@H](CC(N)=O)C(=O)N[C@@H](CC(C)C)C(=O)N[C@H](C(=O)N[C@@H](CC(N)=O)C(=O)N[C@@H](CO)C(=O)N[C@@H](CO)C(=O)N[C@@H](CCCNC(=N)N)C(=O)N1CCC[C@H]1C(=O)N[C@@H](CC(C)C)C(=O)N[C@@H](CCCNC(=N)N)C(=O)N[C@H](C(=O)O)C(C)C)C(C)C)[C@@H](C)CC [mF2Pal16] (Palmitoyl-KINRRNLVNSSRPLRV-OH; C-terminus assumed)
Fpr2
  effect of mF2Pal16 on F1Pal16 response, WT mouse neutrophils: inhibits the activity of F1Pal16 in mouse neutrophils
Fpr2; listed as mF2pal16
  effect of mF2Pal16 on F1Pal16 response, WT mouse neutrophils: the response was sensitive to the pepducin inhibitor mF2pal16
Human neutrophils
  superoxide release / activation of human neutrophils: did not activate human neutrophils to produce superoxide
